# Where “and” joins values, the source holds several entries; their conditions need not be identical. Equal values may be shown once. Read-outs that look alike come from different tables or passages of the source.
# How the values were obtained:
# [1] = biological target: Moloney murine leukemia virus reverse transcriptase (MoMuLV) (Moloney murine leukemia virus, UniProt P03355); experiment: Test of reverse transcriptase inhibition; conditions: 3 μl inhibitor; 37° C. 2 hours; AZT at 0.625 microgram/ml
# [2] = test system: P. aeruginosa; experiment: MIC/MBC broth microdilution; format: cell-based
# [3] = test system: S. aureus; experiment: MIC/MBC broth microdilution; format: cell-based
# [4] = test system: K. oxytoca; experiment: MIC/MBC broth microdilution; format: cell-based
# [5] = test system: S. faecalis; experiment: MIC/MBC broth microdilution; format: cell-based
# [6] = test system: S. mutans; experiment: MIC/MBC broth microdilution; format: cell-based
# [7] = test system: S arizona; experiment: MIC/MBC broth microdilution; format: cell-based; conditions: for MBC: read-out: MBC (minimum bactericidal concentration); for MIC: read-out: MIC (minimum inhibitory concentration)
# [8] = test system: S. typhimurium; experiment: MIC/MBC broth microdilution; format: cell-based; conditions: for MBC: read-out: MBC (minimum bactericidal concentration)
# [9] = test system: E. coli; experiment: MIC/MBC broth microdilution; format: cell-based
# [10] = test system: S. pneumoniae; experiment: MIC/MBC broth microdilution; format: cell-based
# [11] = test system: S. boydii; experiment: MIC/MBC broth microdilution; format: cell-based; conditions: for MBC: read-out: MBC (minimum bactericidal concentration)
# [12] = test system: E. aerogenes; experiment: MIC/MBC broth microdilution; format: cell-based
# [13] = test system: K. pneumoniae; experiment: MIC/MBC broth microdilution; format: cell-based
# [14] = test system: S gordonii; experiment: MIC/MBC broth microdilution; format: cell-based; conditions: for MIC: read-out: MIC (minimum inhibitory concentration)
# [15] = test system: S. pyogenes; experiment: MIC/MBC broth microdilution; format: cell-based
# [16] = test system: E. cloacae; experiment: MIC/MBC broth microdilution; format: cell-based
# [17] = test system: Salmonella choleraesuis ATCC #10708; conditions: 5, 10 or 15 min
# Experimental: (§1) At 30 second intervals, 0.5 ml of each challenge culture was added to the appropriate dilutions of phenol, agitated, and replaced into the water bath: After the appropriate exposure times of 5, 10, and 15 minutes, a loopful of suspension was removed from the assay tubes and transferred to tubes of letheen broth (LETH).
# [18] = test system: Staphylococcus aureus ATCC #6538
# Experimental: as §1
# [19] = test system: Pseudomonas aeruginosa ATCC #15442
# Experimental: as §1
structure (smiles),measurement,setting,value
"Cc1cn([C@H]2C[C@H](N=[N+]=[N-])[C@@H](CO)O2)c(=O)[nH]c1=O [AZT, zidovudine (AZT)]",% Inhibition (reverse transcriptase),[1],31.33% and 18.06%
CCN1CCN(C(=O)N[C@@H](C(=O)N[C@@H]2C(=O)N3C(C(=O)O)=C(CSc4nnnn4C)CS[C@H]23)c2ccc(O)cc2)C(=O)C1=O [Cefaperazone],MBC (minimum bactericidal concentration),[2],5.0 ppm
same,MIC (minimum inhibitory concentration),[2],2.5 ppm
same,MBC (minimum bactericidal concentration),[3],5.0/5.0 ppm
same,MIC (minimum inhibitory concentration),[3],5.0/5.0 ppm
same,MBC (minimum bactericidal concentration),[4],> 5.0 ppm
same,MIC (minimum inhibitory concentration),[4],1.25 ppm
same,MIC (minimum inhibitory concentration),[5],>5.0 ppm
same,MBC (minimum bactericidal concentration),[6],> 5 ppm
same,MIC (minimum inhibitory concentration),[6],1.25 ppm
same,MBC (minimum bactericidal concentration),[7],> 5.0 ppm
same,MIC (minimum inhibitory concentration),[7],0.833 ppm
same,MBC (minimum bactericidal concentration),[8],2.5 ppm
same,MIC (minimum inhibitory concentration),[8],1.25 ppm
same,MBC (minimum bactericidal concentration),[9],> 5.0 ppm
same,MIC (minimum inhibitory concentration),[9],0.625 ppm
same,MBC (minimum bactericidal concentration),[10],0.313/0.313 ppm
same,MIC (minimum inhibitory concentration),[10],0.313/0.313 ppm
same,MBC (minimum bactericidal concentration),[11]; S. boydii,0.625/0.625 ppm
same,MIC (minimum inhibitory concentration),[11]; S. boydii,0.625/0.625 ppm
same,MBC (minimum bactericidal concentration),[12],> 5.0 ppm
same,MIC (minimum inhibitory concentration),[12],2.92 ppm
same,MIC (minimum inhibitory concentration),[13],>5.0 ppm
same,MBC (minimum bactericidal concentration),[14],1.25/1.25 ppm
same,MIC (minimum inhibitory concentration),[14],1.25/1.25 ppm
same,MBC (minimum bactericidal concentration),[15],1.25 ppm
same,MIC (minimum inhibitory concentration),[15],0.313 ppm
CC[C@H]1OC(=O)[C@H](C)[C@@H](O[C@H]2C[C@@](C)(OC)[C@@H](O)[C@H](C)O2)[C@H](C)[C@@H](O[C@@H]2O[C@H](C)C[C@H](N(C)C)[C@H]2O)[C@](C)(O)C[C@@H](C)C(=O)[C@H](C)[C@@H](O)[C@]1(C)O [Erythromycin],MBC,[7],> 5 mg/L
same,MBC,[11]; S. boydii,> 5 mg/L
same,MIC,"[11]; S. boydii, read-out: MIC (minimum inhibitory concentration)",5 mg/L
same,MIC,[14],0.005 mg/L
CC1COc2c(N3CCN(C)CC3)c(F)cc3c(=O)c(C(=O)O)cn1c23 (stereo not shown) [Ofloxacin],MIC,[7],0.078 mg/L
same,MBC,[8]; Salmonella enterica,0.156 mg/L
same,MIC,"[8]; Salmonella enterica, read-out: MIC (minimum inhibitory concentration)",0.078 mg/L
same,MBC,[11]; S. boydii,0.156 mg/L
same,MBC,"[12]; Klebsiella aerogenes, read-out: MBC (minimum bactericidal concentration)",0.156 mg/L
same,MIC,"[12]; Klebsiella aerogenes, read-out: MIC (minimum inhibitory concentration)",0.078 mg/L
same,MBC,[14]; read-out: MBC (minimum bactericidal concentration),5 mg/L
same,MIC,[14],2.5 mg/L
CC1(C)S[C@@H]2[C@H](NC(=O)Cc3ccccc3)C(=O)N2[C@H]1C(=O)O [Penicillin G],MBC (minimum bactericidal concentration),[2],> 5.0 ppm
same,MIC (minimum inhibitory concentration),[2],0.13 ppm
same,MBC (minimum bactericidal concentration),[3],> 5.0 ppm
same,MIC (minimum inhibitory concentration),[3],2.5 ppm
same,MIC (minimum inhibitory concentration),[4],>5.0 ppm
same,MBC (minimum bactericidal concentration),[5],5.0/>5.0 ppm
same,MIC (minimum inhibitory concentration),[5],5.0/>5.0 ppm
same,MBC (minimum bactericidal concentration),[6],> 5 ppm
same,MIC (minimum inhibitory concentration),[6],0.521 ppm
same,MIC (minimum inhibitory concentration),[7],>5.0 ppm
same,MIC (minimum inhibitory concentration),[8],>5.0 ppm
same,MIC (minimum inhibitory concentration),[9],>5.0 ppm
same,MBC (minimum bactericidal concentration),[10],0.019/0.019 ppm
same,MIC (minimum inhibitory concentration),[10],0.019/0.019 ppm
same,MIC (minimum inhibitory concentration),[11],>5.0 ppm
same,MIC (minimum inhibitory concentration),[12],>5.0 ppm
same,MIC (minimum inhibitory concentration),[16],>5.0 ppm
same,MIC (minimum inhibitory concentration),[13],>5.0 ppm
same,MBC (minimum bactericidal concentration),[14],0.039 ppm
same,MIC (minimum inhibitory concentration),[14],0.009 ppm
same,MIC (minimum inhibitory concentration),[15],>5.0 ppm
CN(C)[C@@H]1C(O)=C(C(N)=O)C(=O)[C@@]2(O)C(O)=C3C(=O)c4c(O)cccc4[C@@](C)(O)[C@H]3C[C@@H]12 [Tetracycline],MBC,"[4]; Klebsiella oxytoca, read-out: MBC (minimum bactericidal concentration)",> 5 mg/L
same,MBC,[7],> 5 mg/L
same,MIC,[7],0.625 mg/L
same,MBC,[8]; Salmonella enterica,> 5 mg/L
same,MBC,[11]; S. boydii,> 5 mg/L
Oc1ccccc1 [phenol],growth after phenol treatment,[17]; 1:90 phenol,no growth
same,growth after phenol treatment,[17]; 1:100 phenol,showed growth
same,growth after phenol treatment,"[18]; 1:60 phenol, 5 or 10 min",showed growth
same,growth after phenol treatment,"[18]; 1:60 phenol, 15 min",no growth
same,growth after phenol treatment,"[18]; 1:70 phenol, 5, 10 or 15 min",showed growth
same,growth after phenol treatment,"[19]; 1:80 phenol, 5 or 10 min",showed growth
same,growth after phenol treatment,"[19]; 1:80 phenol, 15 min",no growth
same,growth after phenol treatment,"[19]; 1:90 phenol, 5, 10 or 15 min",showed growth

# — patent publication US8753691B2, “Antiviral colloidal silver composition” (priority 1999, dated 2014)
